“And” between values parts separate entries of the source, which are not always exact repeats. Identical values can stand only once. “Also recorded” adds a separate entry of the source.
Experiments:
[1] = target: T1, human NTPDase3 (Homo sapiens, UniProt O75355); test: Hydrolysis by NTPDase3; format: biochemical; conditions: 100 μM substrate; relative to ATP hydrolysis (100%)
T1 sequence (O75355 1-529): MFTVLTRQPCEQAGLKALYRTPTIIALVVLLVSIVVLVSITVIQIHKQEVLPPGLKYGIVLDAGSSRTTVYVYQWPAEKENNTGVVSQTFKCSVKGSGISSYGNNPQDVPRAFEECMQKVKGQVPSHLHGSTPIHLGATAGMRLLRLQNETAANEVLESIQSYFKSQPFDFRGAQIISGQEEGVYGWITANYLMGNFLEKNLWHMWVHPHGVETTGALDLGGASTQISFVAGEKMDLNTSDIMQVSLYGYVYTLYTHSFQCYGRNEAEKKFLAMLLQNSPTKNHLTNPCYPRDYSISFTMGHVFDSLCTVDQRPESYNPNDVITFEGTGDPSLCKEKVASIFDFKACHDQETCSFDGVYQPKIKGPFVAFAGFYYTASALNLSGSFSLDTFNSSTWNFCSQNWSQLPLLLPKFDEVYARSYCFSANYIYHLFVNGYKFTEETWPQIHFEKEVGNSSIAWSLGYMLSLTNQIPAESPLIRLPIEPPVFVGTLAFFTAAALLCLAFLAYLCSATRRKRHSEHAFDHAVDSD

[2] = target: T2, human NPP3 (Homo sapiens, UniProt O14638); test: Hydrolysis by NPP3; format: biochemical; conditions: 100 μM substrate; relative to pnp-TMP hydrolysis (100%)
T2 sequence (O14638 1-875): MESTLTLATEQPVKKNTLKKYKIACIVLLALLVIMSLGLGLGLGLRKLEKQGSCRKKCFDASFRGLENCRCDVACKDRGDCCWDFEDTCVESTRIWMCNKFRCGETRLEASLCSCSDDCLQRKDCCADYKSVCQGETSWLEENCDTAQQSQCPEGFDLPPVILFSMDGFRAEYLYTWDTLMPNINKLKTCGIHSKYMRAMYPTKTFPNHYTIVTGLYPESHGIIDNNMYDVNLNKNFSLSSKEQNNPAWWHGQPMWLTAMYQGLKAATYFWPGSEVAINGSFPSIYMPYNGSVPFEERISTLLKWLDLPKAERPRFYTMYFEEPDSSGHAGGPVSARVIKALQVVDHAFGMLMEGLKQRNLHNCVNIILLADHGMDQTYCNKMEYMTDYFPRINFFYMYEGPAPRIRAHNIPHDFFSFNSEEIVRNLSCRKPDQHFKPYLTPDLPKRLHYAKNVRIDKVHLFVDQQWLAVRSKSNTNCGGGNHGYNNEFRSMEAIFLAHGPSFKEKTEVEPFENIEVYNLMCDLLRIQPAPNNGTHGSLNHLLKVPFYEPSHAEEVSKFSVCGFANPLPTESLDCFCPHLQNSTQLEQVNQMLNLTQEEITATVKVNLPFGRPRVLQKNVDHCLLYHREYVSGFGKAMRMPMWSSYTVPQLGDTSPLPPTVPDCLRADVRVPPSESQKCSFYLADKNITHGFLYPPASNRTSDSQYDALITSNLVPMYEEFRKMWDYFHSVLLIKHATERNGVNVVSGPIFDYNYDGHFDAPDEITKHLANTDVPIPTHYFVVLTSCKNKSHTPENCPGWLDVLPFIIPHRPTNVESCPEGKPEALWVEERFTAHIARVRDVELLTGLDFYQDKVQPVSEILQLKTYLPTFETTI

[3] = target: human P2Y4 receptor (Homo sapiens, UniProt P51582); test: Increase in [Ca2+]i in 1321N1 astrocytoma cells expressing P2Y4 receptor; format: cell-based; conditions: 1321N1 cell transfectants; for EC50: read-out: EC50 of analogue-induced increase in [Ca2+]i, P2Y4
Chain of human P2Y4 receptor (P51582 whole entry): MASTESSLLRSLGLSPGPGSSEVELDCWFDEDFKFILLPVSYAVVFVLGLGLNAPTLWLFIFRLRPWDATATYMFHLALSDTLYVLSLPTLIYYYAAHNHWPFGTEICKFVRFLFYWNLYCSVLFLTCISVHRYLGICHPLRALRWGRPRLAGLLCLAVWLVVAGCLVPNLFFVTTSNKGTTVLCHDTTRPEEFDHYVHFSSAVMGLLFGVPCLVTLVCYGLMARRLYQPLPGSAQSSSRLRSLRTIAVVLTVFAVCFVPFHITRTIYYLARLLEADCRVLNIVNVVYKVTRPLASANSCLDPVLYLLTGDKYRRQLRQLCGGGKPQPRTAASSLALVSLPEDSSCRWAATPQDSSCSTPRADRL

[4] = target: T3, human NTPDase2 (Homo sapiens, UniProt Q9Y5L3); test: Hydrolysis by NTPDase2; format: biochemical; conditions: 100 μM substrate; relative to ATP hydrolysis (100%)
T3 sequence (Q9Y5L3 1-495): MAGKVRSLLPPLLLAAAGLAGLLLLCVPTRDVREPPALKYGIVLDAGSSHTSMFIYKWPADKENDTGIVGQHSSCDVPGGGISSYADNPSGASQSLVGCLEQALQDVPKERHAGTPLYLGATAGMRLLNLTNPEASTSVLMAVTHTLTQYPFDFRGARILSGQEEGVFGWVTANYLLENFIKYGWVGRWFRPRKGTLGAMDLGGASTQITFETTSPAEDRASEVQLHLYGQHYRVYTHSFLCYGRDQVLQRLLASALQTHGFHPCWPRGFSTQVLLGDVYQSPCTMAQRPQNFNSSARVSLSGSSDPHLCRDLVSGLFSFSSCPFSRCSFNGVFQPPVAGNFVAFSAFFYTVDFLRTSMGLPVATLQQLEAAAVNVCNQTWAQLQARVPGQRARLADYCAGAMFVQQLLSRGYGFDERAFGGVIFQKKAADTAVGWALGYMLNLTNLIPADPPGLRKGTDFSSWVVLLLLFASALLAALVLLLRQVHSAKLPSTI

[5] = target: human P2Y2 receptor (Homo sapiens, UniProt P41231); test: Increase in [Ca2+]i in 1321N1 astrocytoma cells expressing P2Y2 receptor; format: cell-based; conditions: 1321N1 cell transfectants; for EC50: read-out: EC50 of analogue-induced increase in [Ca2+]i, P2Y2
Chain of human P2Y2 receptor (P41231 whole entry): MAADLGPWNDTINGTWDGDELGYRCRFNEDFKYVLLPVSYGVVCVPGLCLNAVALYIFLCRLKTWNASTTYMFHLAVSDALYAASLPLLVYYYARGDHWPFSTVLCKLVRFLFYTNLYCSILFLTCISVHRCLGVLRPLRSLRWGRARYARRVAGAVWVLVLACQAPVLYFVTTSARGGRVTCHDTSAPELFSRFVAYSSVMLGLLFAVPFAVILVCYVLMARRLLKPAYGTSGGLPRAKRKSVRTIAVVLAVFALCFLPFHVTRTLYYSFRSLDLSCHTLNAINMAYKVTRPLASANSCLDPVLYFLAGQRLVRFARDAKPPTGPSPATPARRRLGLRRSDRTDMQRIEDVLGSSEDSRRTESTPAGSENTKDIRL

[6] = target: turkey P2Y1 receptor (Meleagris gallopavo, UniProt P49652); format: cell-based; conditions: 1321N1 cell transfectants; for EC50: read-out: EC50 of analogue-induced increase in [Ca2+]i, P2Y1
Chain of turkey P2Y1 receptor (P49652 whole entry): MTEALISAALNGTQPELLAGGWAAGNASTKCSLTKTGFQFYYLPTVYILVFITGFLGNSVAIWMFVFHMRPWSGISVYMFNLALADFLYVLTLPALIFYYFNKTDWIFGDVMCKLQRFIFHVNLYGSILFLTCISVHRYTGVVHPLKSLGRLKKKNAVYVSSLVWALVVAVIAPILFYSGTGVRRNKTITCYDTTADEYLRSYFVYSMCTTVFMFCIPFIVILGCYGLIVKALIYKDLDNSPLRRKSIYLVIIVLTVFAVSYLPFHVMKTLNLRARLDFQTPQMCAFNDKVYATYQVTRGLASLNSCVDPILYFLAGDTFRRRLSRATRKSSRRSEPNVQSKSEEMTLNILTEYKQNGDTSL

[7] = target: T4, human NTPDase8 (Homo sapiens, UniProt Q5MY95); test: Hydrolysis by NTPDase8; format: biochemical; conditions: 100 μM substrate; relative to ATP hydrolysis (100%)
T4 sequence (Q5MY95 1-495): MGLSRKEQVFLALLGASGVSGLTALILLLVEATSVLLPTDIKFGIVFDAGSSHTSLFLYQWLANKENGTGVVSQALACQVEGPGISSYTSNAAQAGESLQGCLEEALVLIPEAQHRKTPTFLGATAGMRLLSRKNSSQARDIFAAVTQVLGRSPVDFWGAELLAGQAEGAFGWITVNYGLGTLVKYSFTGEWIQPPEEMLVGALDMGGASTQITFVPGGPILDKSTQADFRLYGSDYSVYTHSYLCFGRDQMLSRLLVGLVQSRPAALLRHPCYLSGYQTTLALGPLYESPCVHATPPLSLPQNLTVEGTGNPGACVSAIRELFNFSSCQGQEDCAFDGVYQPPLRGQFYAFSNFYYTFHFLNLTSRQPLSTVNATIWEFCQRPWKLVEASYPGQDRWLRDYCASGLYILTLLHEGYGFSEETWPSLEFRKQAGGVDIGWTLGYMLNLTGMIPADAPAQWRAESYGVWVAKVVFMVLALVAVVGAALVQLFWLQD

Structure (SMILES)	Relative activity of NTPDase3 [1] [%]	Relative activity of NPP3 [2]	agonist activity at P2Y4R [3]	EC50 [3] [µM]	Relative activity of NTPDase2 [4] [%]	agonist activity at P2Y2R [5]	EC50 [5] [µM]	agonist activity at P2Y1R [6]	EC50 [6] [µM]	Relative activity of NTPDase8 [7] [%]
[BH3-][P+](O)(OC[C@H]1O[C@@H](n2cnc3c(N)ncnc32)[C@H](O)[C@@H]1O)OP(=O)(O)CP(=O)(O)O (single isomer, unassigned) [3A, Adenosine-5′-O-(α-boranotriphosphate)-β,γ-CH2]	0	0%	insignificant activities	> 100	1.0 ± 0.2	insignificant activities	> 100	insignificant activities; also recorded: practically inactive	> 100	2.0 ± 0.03
[BH3-][P+](O)(OC[C@H]1O[C@@H](n2cnc3c(N)ncnc32)[C@H](O)[C@@H]1O)OP(=O)(O)CP(=O)(O)O (single isomer, unassigned) [3B, Adenosine-5′-O-(α-boranotriphosphate)-β,γ-CH2]	6.0 ± 0.16	3.0 ± 0.05%	insignificant activities	> 100	0	insignificant activities	> 100	insignificant activities	> 100	<1
[BH3-][P+](O)(OC[C@H]1O[C@@H](n2cnc3c(N)nc(SC)nc32)[C@H](O)[C@@H]1O)OP(=O)(O)CP(=O)(O)O (single isomer, unassigned) [4A, 2-MeS–adenosine-5′-O-(α-boranotriphosphate)-β,γ-CH2]	2.0 ± 0.26	10% and 9.9 ± 0.5%	insignificant activities	> 100	1.0 ± 0.1	insignificant activities; also recorded: inactivity	> 100	insignificant activities; also recorded: practically inactive; also recorded: no activity	> 100	4.0 ± 0.02

Reference: PMC4354951 (European journal of medicinal chemistry, 2008)
